Experimental findings from US20110207723A1, “NOVEL FUSED AMINODIHYDROTHIAZINE DERIVATIVE” (EISAI R&D MANAGEMENT CO., LTD., priority 2008, published 2011) are described below.

Each structure is given as a SMILES string.

The term IC50 denotes the concentration that gives 50% inhibition.

The assay concerns Aβ42 production. Put plainly: Quantification of Aβ peptide in culture of neurons from rat fetus brain (Aβ42 ELISA). The class given is cell-based. The following applies: Neuron, 72 h, rat primary neuronal culture (embryonic day 18 Wistar rat cerebral cortex), medium collected three days after addition of compound, read-out: Aβ42 production reducing effect IC50. The protocol: Quantification of Aβ Peptide in Culture of Neurons from Rat Fetus Brain
Primary neuronal cultures were prepared from the cerebral cortex of embryonic day 18 Wistar rats (Charles River Japan, Yokohama, Japan). Specifically, the embryos were aseptically removed from pregnant rats under ether anesthesia. The brain was isolated from the embryo and immersed in an ice-cold L-15 medium (such as Invitrogen Corp. Cat #11415-064, Carlsbad, Calif., USA, or SIGMA L1518). The cerebral cortex was collected from the isolated brain under a stereoscopic microscope. The cerebral cortex fragments collected were enzymatically treated in an enzyme solution containing 0.25% trypsin (Invitrogen Corp. Cat #15050-065, Carlsbad, Calif., USA) and 0.01% DNase (Sigma D5025, St. Louis, Mo., USA) at 37° C. for 30 minutes to disperse the cells. Here, the enzymatic reaction was stopped by adding inactivated horse serum to the solution. The enzymatically treated solution was centrifuged at 1,500 rpm for five minutes to remove the supernatant. 5 to 10 ml of a medium was added to the resulting cell mass. Neurobasal medium (Invitrogen Corp. Cat #21103-049, Carlsbad, Calif., USA) supplemented with 2% B27 supplement (Invitrogen Corp. Cat #17504-044, Carlsbad, Calif., USA), 25 μM 2-mercaptoethanol (2-ME, WAKO Cat #139-06861, Osaka, Japan), 0.5 mM L-glutamine (Invitrogen Corp. Cat #25030-081, Carlsbad, Calif., USA), and Antibiotics-Antimycotics (Invitrogen Corp. Cat #15240-062, Carlsbad, Calif., USA) was used as the medium (Neurobasal/B27/2-ME). However, the above Neurobasal medium not supplemented with 2-ME (Neurobasal/B27) was used for the assay. The cells were redispersed by mild pipetting of the cell mass to which the medium was added. The cell dispersion was filtered through a 40-μm nylon mesh (Cell Strainer, Cat #35-2340, Becton Dickinson Labware, Franklin Lakes, N.J., USA) to remove the remaining cell mass, and thus a neuronal cell suspension was obtained. The neuronal cell suspension was diluted with the medium and then plated in a volume of 100 μl/well at an initial cell density of 5×10^5 cells/cm^2 in a 96-well polystyrene culture plate pre-coated with poly-L or D-lysine (Falcon Cat #35-3075, Becton Dickinson Labware, Franklin Lakes, N.J., USA coated with poly-L-lysine using the method shown below, or BIOCOAT™ cell environments Poly-D-lysine cell ware 96-well plate, Cat #35-6461, Becton Dickinson Labware, Franklin Lakes, N.J., USA). Poly-L-lysine coating was carried out as follows. 100 μg/ml of a poly-L-lysine (SIGMA P2636, St. Louis, Mo., USA) solution was aseptically prepared with a 0.15 M borate buffer (pH 8.5). […] of the solution was added to the 96-well polystyrene culture plate and incubated at room temperature for one or more hours or at 4° C. overnight or longer. Thereafter, the coated 96-well polystyrene culture plate was washed with sterile water four or more times, and then dried or rinsed with, for example, sterile PBS or medium, and used for cell plating. The plated cells were cultured in the culture plate at 37° C. in 5% CO2-95% air for one day. Then, the total amount of the medium was replaced with a fresh Neurobasal/B27/2-ME medium, and then the cells were cultured for further three days.
The drug was added to the culture plate on Day 4 of culture as follows. The total amount of the medium was removed from the wells, and 180 μl/well of Neurobasal medium not containing 2-ME and containing 2% B-27 (Neurobasal/B27) was added thereto. A solution of the test compound in dimethyl sulfoxide (hereinafter abbreviated as DMSO) was diluted with Neurobasal/B27 to a concentration 10-fold higher than the final concentration. 20 μl/well of the dilution was added to and sufficiently mixed with the medium. The final DMSO concentration was 1% or less. Only DMSO was added to the control group.
The cells were cultured for three days after addition of the compound, and the total amount of the medium was collected. […]
As for `C[C@H]1COC[C@]2(c3cc(NC(=O)c4ccc(Cl)cn4)ccc3F)N=C(N)SC[C@H]12` (relative stereo) [Example 26, N-[3-((4aR*,5R*,8aS*)-2-amino-5-methyl-4,4a,5,6-tetrahydro-7-oxa-3-thia-1-azanaphthalen-8a-yl)-4-fluorophenyl]-5-chloropyridine-2-carboxamide], the IC50 came out at 3 nM.

For `C[C@H]1COC[C@]2(c3cc(NC(=O)c4ccc(C#N)cn4)ccc3F)N=C(N)SC[C@H]12` (relative stereo) [Example 27, N-[3-((4aR*,5R*,8aS*)-2-amino-5-methyl-4,4a,5,6-tetrahydro-7-oxa-3-thia-1-azanaphthalen-8a-yl)-4-fluorophenyl]-5-cyanopyridine-2-carboxamide], the IC50 worked out at 8 nM.

As to `C[C@H]1COC[C@]2(c3cc(NC(=O)c4cnc(OC(F)F)cn4)ccc3F)N=C(N)SC[C@H]12` (relative stereo) [Example 28, N-[3-((4aR*,5R*,8aS*)-2-amino-5-methyl-4,4a,5,6-tetrahydro-7-oxa-3-thia-1-azanaphthalen-8a-yl)-4-fluorophenyl]-5-difluoromethoxypyrazine-2-carboxamide], the IC50 was found to be 1.4 nM.

Consider `C[C@H]1COC[C@]2(c3cc(NC(=O)c4cnc(C(F)F)cn4)ccc3F)N=C(N)SC[C@H]12` (relative stereo) [Example 29, N-[3-((4aR*,5R*,8aS*)-2-amino-5-methyl-4,4a,5,6-tetrahydro-7-oxa-3-thia-1-azanaphthalen-8a-yl)-4-fluorophenyl]-5-difluoromethylpyrazine-2-carboxamide], for which the IC50 came to 3 nM.

Consider `CO[C@H]1COC[C@]2(c3cc(NC(=O)c4ccc(C#N)cn4)ccc3F)N=C(N)SC[C@H]12` (relative stereo) [Example 30, N-[3-((4aS*,5R*,8aS*)-2-amino-5-methoxy-4,4a,5,6-tetrahydro-7-oxa-3-thia-1-azanaphthalen-8a-yl)-4-fluorophenyl]-5-cyanopyridine-2-carboxamide], for which the half-inhibitory concentration (IC50) is 6 nM.

As to `C[C@H]1SC(N)=N[C@@]2(c3cc(NC(=O)c4ccc(C#N)cn4)ccc3F)COCC[C@@H]12` (relative stereo) [Example 31, N-[3-((2R*,4aR*,8aS*)-2-amino-4-methyl-4,4a,5,6-tetrahydro-7-oxa-3-thia-1-azanaphthalen-8a-yl)-4-fluorophenyl]-5-cyanopyridine-2-carboxamide], the half-inhibitory concentration (IC50) stood at 1.9 nM.

For the compound `C[C@H]1SC(N)=N[C@@]2(c3cc(NC(=O)c4cnc(C(F)F)cn4)ccc3F)COCC[C@@H]12` (relative stereo) [Example 32, N-[3-((2R*,4aR*,8aS*)-2-amino-4-methyl-4,4a,5,6-tetrahydro-7-oxa-3-thia-1-azanaphthalen-8a-yl)-4-fluorophenyl]-5-difluoromethylpyrazine-2-carboxamide], the concentration for half-maximal inhibition (IC50) came to 3 nM.

For `N#Cc1ccc(C(=O)Nc2ccc(F)c([C@]34CO[C@@H](C(F)(F)F)C[C@H]3CSC(N)=N4)c2)nc1` (relative stereo) [Example 35, N-[3-((4aR*,6R*,8aS*)-2-amino-6-trifluoromethyl-4,4a,5,6-tetrahydro-7-oxa-3-thia-1-azanaphthalen-8a-yl)-4-fluorophenyl]-5-cyanopyridine-2-carboxamide], the IC50 amounted to 2.1 nM.

Turning to `NC1=N[C@@]2(c3cc(NC(=O)c4cnc(OC(F)F)cn4)ccc3F)CO[C@@H](C(F)(F)F)C[C@H]2CS1` (relative stereo) [Example 36, N-[3-((4aR*,6R*,8aS*)-2-amino-6-trifluoromethyl-4,4a,5,6-tetrahydro-7-oxa-3-thia-1-azanaphthalen-8a-yl)-4-fluorophenyl]-5-difluoromethoxypyrazine-2-carboxamide], the IC50 was found to be 0.5 nM.

For `NC1=N[C@@]2(c3cc(NC(=O)c4ccc(F)cn4)ccc3F)CO[C@@H](C(F)(F)F)C[C@H]2CS1` (relative stereo) [Example 37, N-[3-((4aR*,6R*,8aS*)-2-amino-6-trifluoromethyl-4,4a,5,6-tetrahydro-7-oxa-3-thia-1-azanaphthlen-8a-yl)-4-fluorophenyl]-5-fluoropyriidne-2-carboxamide], the half-maximal inhibitory concentration (IC50) was found to be 2 nM.

For `NC1=N[C@@]2(c3cc(NC(=O)c4ccccn4)ccc3F)CO[C@@H](C(F)(F)F)C[C@H]2CS1` (relative stereo) [Example 38, N-[3-((4aR*,6R*,8aS*)-2-amino-6-trifluoromethyl-4,4a,5,6-tetrahydro-7-oxa-3-thia-1-azanaphthalen-8a-yl)-4-fluorophenyl]-pyridine-2-carboxamide], the 50% inhibitory concentration (IC50) came out at 3 nM.

Take `NC1=N[C@@]2(c3cc(NC(=O)c4cnc(OCF)cn4)ccc3F)CO[C@@H](C(F)(F)F)C[C@H]2CS1` (relative stereo) [Example 39, N-[3-((4aR*,6R*,8aS*)-2-amino-6-trifluoromethyl-4,4a,5,6-tetrahydro-7-oxa-3-thia-1-azanaphthalen-8a-yl)-4-fluorophenyl]-5-fluoromethoxypyrazine-2-carboxamide]: the IC50 came out at 1 nM.

For the compound `NC1=N[C@@]2(c3cc(NC(=O)c4ccncn4)ccc3F)CO[C@@H](C(F)(F)F)C[C@H]2CS1` (relative stereo) [Example 40, N-[3-((4aR*,6R*,8aS*)-2-amino-6-trifluoromethyl-4,4a,5,6-tetrahydro-7-oxa-3-thia-1-azanaphthalen-8a-yl)-4-fluorophenyl]-pyrimidine-4-carboxamide], the IC50 worked out at 2 nM.

`NC1=N[C@@]2(c3cc(NC(=O)c4ncc(F)cc4F)ccc3F)CO[C@@H](C(F)(F)F)C[C@H]2CS1` (relative stereo) [Example 41, N-[3-((4aR*,6R*,8aS*-2-amino-6-trifluoromethyl-4,4a,5,6-tetrahydro-7-oxa-3-thia-1-azanaphthalen-8a-yl)-4-fluorophenyl]-3,5-difluoropyridine-2-carboxamide]: the IC50 came to 2 nM.

For `NC1=N[C@@]2(c3cc(NC(=O)c4ccc(OC(F)F)cn4)ccc3F)CO[C@@H](C(F)(F)F)C[C@H]2CS1` (relative stereo) [Example 42, N-[3-((4aR*,6R*,8aS*)-2-amino-6-trifluoromethyl-4,4a,5,6-tetrahydro-7-oxa-3-thia-1-azanaphthalen-8a-yl)-4-fluorophenyl]-5-difluoromethoxypyridine-2-carboxamide], the IC50 came out at 0.9 nM.

`NC1=N[C@@]2(c3cc(NC(=O)c4cnc(C(F)F)cn4)ccc3F)CO[C@@H](C(F)(F)F)C[C@H]2CS1` (relative stereo) [Example 43, N-[3-((4aR*,6R*,8aS*)-2-amino-6-trifluoromethyl-4,4a,5,6-tetrahydro-7-oxa-3-thia-1-azanaphthalen-8a-yl)-4-fluorophenyl]-5-difluoromethylpyrazine-2-carboxamide]: the IC50 stood at 1.7 nM.

As to `NC1=N[C@@]2(c3cc(-c4cccnc4F)ccc3F)CO[C@@H](C(F)(F)F)C[C@H]2CS1` (relative stereo) [Example 59, (±)-(4aR*,6R*,8aS*)-8a-[2-fluoro-5-(2-fluoropyridin-3-yl)phenyl]-6-trifluoromethyl-4,4a,5,6,8,8a-hexahydro-7-oxa-3-thia-1-azanaphthalen-2-ylamine], the IC50 came to 87 nM.

As to `N#Cc1ccc(C(=O)Nc2ccc(OC(F)(F)F)c([C@]34COCC[C@H]3CSC(N)=N4)c2)nc1` (single isomer, unassigned) [Example 4, N-[3-((4aR*,8aS*)-2-amino-4,4,5,6-tetrahydro-7-oxa-3-thia-1-azanaphthalen-8a-yl)-4-trifluoromethoxyphenyl]-5-cyanopyridine-2-carboxamide], the concentration for half-maximal inhibition (IC50) is 11 nM.
